Measured values reported in paper PMC3877906, “Polypeptide Modulators of TRPV1 Produce Analgesia without Hyperthermia” (Marine Drugs, 2013).
“Also recorded” adds a separate entry of the source.

How the values were obtained:
[1] = tested on: TRPV1; format: cell-based, rat; settings: for effect on capsaicin-induced TRPV1 response: whole-cell patch clamp, HEK-293
Description: Figure 2 Effects of APHC3 on recombinant TRPV1 expressed in HEK-293 cells. (a) Resting current recorded from a TRPV1-positive cell held at −30 mV. […] Straight lines above the recording indicate application of APHC3 (Long line) and capsaicin (Short lines). The cells were stimulated and rinsed by rapid switching of the bath solution between the control solution and solutions containing the indicated compound. (b) Capsaicin responses in control and in the presence of the 300 nM APHC3 peptide. In each case, the control response was calculated as an average of two acid responses recorded just prior to peptide application. Averaged responses recorded in the presence of APHC3 were normalized to averaged control responses. Those are presented as the mean ± s.d. (n = 4). […] (c, d) Cell responses to the acidification of the bath solution from pH 7.4 to pH 5.5 in control and in the presence of the APHC3 applied at different concentrations as indicated. The experimental traces in (c) and in (d, upper trace) illustrate representative responses of EGFP/TRPV1-positive cells. The bottom trace in (d) represents responses of an EGFP/TRPV1-negative cell assayed simultaneously. (e) Acid responses recorded in the presence of APHC3 (90, 160 and 240 nM) normalized to a control response. The data are presented as the mean ± s.d. (n = 5–10). […] In each case, the control response was calculated as an average of the two acid responses recorded just prior to peptide application. The average of the two acid responses recorded after peptide application was calculated and normalized to the control response. Experimental traces in (c, d) were obtained from three different cells. The changes in bath solution pH (continuous lines) and APHC3 applications (thick straight lines) are shown above the fluorescence traces. Cells were stimulated and rinsed by a rapid replacement of the control bath solution with modified bath solution at pH 5.5 with or without APHC3.
HEK-293 cells were cultured in Dulbecco’s modified Eagle’s medium (DMEM) (Life Technologies, Grand Island, NY, USA) containing 10% (vol/vol) fetal bovine serum (Thermo Fisher Scientific, Palm Beach, FL, USA), glutamine (1%) and the antibiotic gentamicin (100 μg/mL) (Life Technologies, Grand Island, NY, USA). The pIRES2-EGFP plasmid harboring rat TRPV1 cDNA was transiently transfected into HEK-293 cells by replacing the growth medium in each well with a transfection mixture, containing 1.6 μg of DNA and 4 μL of Lipofectamine (Life Technologies, Grand Island, NY, USA) in 1 mL of serum-free DMEM. After incubating for 6 h, the transfection mixture was replaced with normal culture medium. Cells were assayed within 48–96 h after transfection.
Ion currents were recorded using an Axopatch 200A amplifier, with a DigiData 1322A interface, and pClamp8 software (Molecular Devices, Downingtown, PA, USA). External solutions were delivered by a gravity-driven perfusion system at a rate of 0.1 mL/s. Generally, the whole-cell patch clamp approach was used with recording pipettes containing (mM): 140 CsCl, 1 MgATP, 10 BAPTA, 10 HEPES-CsOH (pH 7.2). The basic bath solution included the following (mM): 140 NaCl, 5 KCl, 1 MgCl2, 1 CaCl2, 10 HEPES-NaOH (pH 7.4).

[2] = tested on: TRPV1; experiment: low pH-induced TRPV1 receptor currents/activation; format: cell-based; settings: pH 5.5
Text: The residues responsible for APHC’s activity are not determined. […] These differences in pharmacology were expressed further in the in vivo results.

[3] = tested on: p2X3; experiment: p2X3 activity, oocyte electrophysiology or agonist-induced fluorescence readout; format: cell-based; settings: concentrations of up to 2 μM; data not shown
[4] = tested on: CD-1 mice; experiment: open-field locomotor activity test; format: in vivo, mouse; settings: 0.1 mg/kg i.v.; vs saline; n = 9 per group; 3 min recording
Text: We conducted multiple in vivo experiments to assess the biological effects of APHC1 and APHC3, acting via modulation of TRPV1, on temperature sensation and inflammation. Possible negative effects of investigated components on the central nervous system were first excluded. We evaluated APHC1/3 in open-field locomotor activity tests as compounds capable of reducing locomotor activity could misrepresent results of other behavioral tests (particularly in pain models). […] There was no significant effect detected for either polypeptide at a dose of 0.1 mg/kg i.v. (Figure 3a).
All experiments were performed in accordance with the recommendations in the “Principles of Laboratory Animal Care” and after approval by the Animal Care and Use Committee of the Branch of the IBCh RAS (Pushchino, Russia). Adult male CD-1 mice (Animal Breeding Facility Branch of Shemyakin-Ovchinnikov Institute of Bioorganic Chemistry, Russian Academy of Sciences, Pushchino, Russia) weighing 20–25 g were used. […]
The significance of the data was determined by analysis of variance (ANOVA) followed by Tukey’s test. […]
Open-field activity was measured using a system that counts interruptions in a set of photo beams (OPTO—VARIMEX (Columbus Instruments, Columbus, OH, USA) and ATM3 Auto System using Auto-Track Version 4.2 software). Spontaneous locomotor activity was recorded for 3 min.

[5] = tested on: CD-1 mice; experiment: formalin test; format: in vivo, mouse; settings: for formalin-induced response: 0.01 mg/kg; for inhibition of second phase of formalin test: 10.01–60 min; for effect on first phase of formalin test, in words / effect on second phase of formalin test, in words: vs saline
Text: The formalin test is a complex in vivo model of pain where TRPV1’s function is more integrative than perceptive. In the mouse, intraplantar injections of formalin produce a biphasic behavioral reaction. The molecular mechanisms underlying formalin-induced pain are based on tissue damage, non-specific activation of nociceptors and direct activation of TRPA1 receptors (measured in phase I) that drive the local neurogenic inflammation and CNS sensitization (measured in phase 2). APHC1 and APHC3 were tested on TRPA1 for inhibitory/activation effects.
All experiments were performed in accordance with the recommendations in the “Principles of Laboratory Animal Care” and after approval by the Animal Care and Use Committee of the Branch of the IBCh RAS (Pushchino, Russia). Adult male CD-1 mice (Animal Breeding Facility Branch of Shemyakin-Ovchinnikov Institute of Bioorganic Chemistry, Russian Academy of Sciences, Pushchino, Russia) weighing 20–25 g were used. Animals were allowed to acclimate in the laboratory for at least five days. Mice were housed at room temperature (23 ± 2 °C) on a 12 h light–dark cycle with food and water available ad libitum. Polypeptides or vehicle was administered intravenously 15 min before testing.
The significance of the data was determined by analysis of variance (ANOVA) followed by Tukey’s test. Data are presented as mean ± S.E.
Formalin (10 μL 2% in saline) was injected intradermally into the left hind paw. […] This test produces a distinct biphasic response. The total duration of paw flinching during the early phase (0–10 min) and late phase (10.01–60 min) were summed.

[6] = tested on: TRPV1-dependent normal and diabetic bladder smooth muscle contractility; settings: ref [17]; cited from earlier work
Text: (§1) Polypeptide molecules typically have a greater specific activity at a particular receptor than do small molecule agonists, which makes them attractive for researchers and pharmaceutical companies. We have previously reported the isolation of a polypeptide modulator of TRPV1 from a homogenized extract of the sea anemone Heteractis crispa named APHC1 and its partial in vivo characterization. Two homological polypeptides (APHC2 and APHC3) were subsequently found in the same extract, but their biological activity has not yet been properly characterized. APHC1 and APHC3 are weak ...

[7] = tested on: serine proteases; settings: ref [14],[16]; cited from earlier work
Text: as §1

Substance	inhibition of TRPV1 currents ([1]; 100 nM capsaicin, 300 nM APHC3, whole-cell, held at −30 mV, pH 7.4 bath, four experiments (n = 4))	inhibitory effect on capsaicin-induced currents ([1]; concentrations more than 300 nM)	effect on capsaicin-induced TRPV1 response ([1]; 100 nM capsaicin)	effect on low pH-induced TRPV1 activation, in words [2]	agonistic/antagonistic activity at p2X3 [3]	travelled distance and rearing, open-field locomotor activity [4]	formalin-induced response [5]	inhibition of second phase of formalin test ([5]; 0.1 mg/kg i.v., n = 9)	effect on first phase of formalin test, in words ([5]; 0.1 mg/kg i.v., n = 9)	effect on second phase of formalin test, in words ([5]; 0.1 mg/kg i.v., n = 9)	modulation of TRPV1-dependent normal and diabetic bladder smooth muscle contractility [6]	inhibition of serine proteases [7]	attenuation of first phase of formalin test ([5]; 0.1 mg/kg i.v., 0–10 min, n = 9, "39% of response")
APHC3: polypeptide from Heteractis crispa highly homologous to APHC1, differing in four of 56 amino acids; produced recombinantly in E. coli (GSICLEPKVVGPCTAYFPRFYFNSETGKCTPFIYGGCEGNGNNFETLRACRGICRA; left off: TRX, end not stated, cleaved)	~25%	25%	partially blocked the capsaicin-induced response	inhibited acid-induced (pH 5.5) activation of the receptor	neither agonistic nor antagonistic activity	did not significantly alter normal mouse behavior	no significant influence	86%	did not affect the first phase of the response; also recorded: no significant effect on phase 1	almost completely blocked phase 2; also recorded: significantly inhibited the second phase	modulate	weak inhibitors	–
APHC1: polypeptide modulator of TRPV1 from sea anemone Heteractis crispa; homologous to BPTI/Kunitz type serine-protease inhibitors; produced recombinantly in E. coli (GSICLEPKVVGPCTAYFRRFYFDSETGKCTVFIYGGCEGNGNNFETLRACRAICRA; left off: TRX, end not stated, cleaved)	–	–	partially blocked the capsaicin-induced response	unable to observe any effect	neither agonistic nor antagonistic activity	did not significantly alter normal mouse behavior	no significant influence	70%	significantly attenuated the first phase	significantly inhibited the second phase	modulate	weak inhibitors	39%
